One assay has as its target H3 receptor (Homo sapiens, UniProt Q9Y5N1). The assay can be described thus: GTP-γ-S assay performed by the Psychoactive Drug Screening Program. Type of assay: biochemical.
In another assay the test system is brain H3 receptors. Put plainly: PET imaging of [18F]9 in monkey. The assay is classed as in vivo, rhesus monkey. To be noted: [18F]9 Vt, two monkeys, ciproxifan pretreatment.
A further assay addresses rat H3 receptors. To be noted: known, ref not given; cited from earlier work.
Another assay concerns human H3 receptors. To be noted: human vs rat H3; known, ref not given; cited from earlier work.

Read-outs that look alike come from different tables or passages of the source.

H3 receptor, sequence (Q9Y5N1 whole entry): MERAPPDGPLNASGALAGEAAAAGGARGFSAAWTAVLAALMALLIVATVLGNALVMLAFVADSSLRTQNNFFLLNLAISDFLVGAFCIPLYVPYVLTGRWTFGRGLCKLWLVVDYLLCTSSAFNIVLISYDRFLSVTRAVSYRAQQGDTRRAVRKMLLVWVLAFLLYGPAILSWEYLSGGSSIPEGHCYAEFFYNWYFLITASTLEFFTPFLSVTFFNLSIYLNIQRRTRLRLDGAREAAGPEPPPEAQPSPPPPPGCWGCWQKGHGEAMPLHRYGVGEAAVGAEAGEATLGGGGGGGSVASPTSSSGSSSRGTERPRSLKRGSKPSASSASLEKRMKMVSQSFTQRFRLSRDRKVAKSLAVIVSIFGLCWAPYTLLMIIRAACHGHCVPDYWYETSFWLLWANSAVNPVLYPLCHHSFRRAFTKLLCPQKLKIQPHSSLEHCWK

As to `C[C@@H]1CCCN1CCc1cc2cc(C(=O)c3ccc(F)cc3)ccc2o1` [Compound 9, (R)-(2-(2-(2-methylpyrrolidin-1-yl)ethyl)benzofuran-5-yl)(4-fluorophenyl)methanone], on H3 receptor, the intrinsic activity entry is on record as “inverse agonists”.
On to `C[C@@H]1CCCN1CCc1cc2cc(C(=O)c3ccc([N+](=O)[O-])cc3)ccc2o1` [Compound 12, (R)-(2-(2-(2-Methylpyrrolidin-1-yl)ethyl)benzofuran-5-yl)(4-nitrophenyl)methanone], for which the intrinsic activity entry on H3 receptor (GTP-γ-S assay, Psychoactive Drug Screening Program) is “inverse agonists”.
The term Ki denotes a measure of affinity in units of concentration, obtained from inhibition or displacement. Consider `O=C(c1ccc(OCCCc2c[nH]cn2)cc1)C1CC1` [ciproxifan], for which the “Mean Vt decrease” value in the assay with brain H3 receptors (Cerebellum) was -26%; in the assay on brain H3 receptors (Frontal cortex) it was -34%; with brain H3 receptors (Hippocampus) it was -33%; in the assay with brain H3 receptors (Striatum), -26%; in the assay with brain H3 receptors (Thalamus), -33%. The Ki on rat H3 receptors was 0.51 nM. For the same compound, the “lower affinity for human H3 receptors than for rat H3 receptors” value in the assay with human H3 receptors is “over 100 fold”.
